The test system of one data set is N muscle-type (h). The experiment in a line: N muscle-type (h) (antagonist radioligand). Particulars: 10 µM.
Data set [1] can be described thus: High throughput kinetic solubility measurement. Type of data set: physicochemical. To be noted: phosphate buffer, pH 6.5, aqueous buffer, kinetic from dmso stock.
The subject of data set [2] is serine hydrolases in the mouse brain proteome (MBP). The experiment in a line: Multiplex ABPP in mouse brain proteome. To be noted: for labeling selectivity in ABPP (covalent probes): mouse brain homogenates, broad range of concentrations; for selectivity in competitive ABPP (reversible probes): mouse brain proteome, membrane and cytosolic fraction, 1 μM. Type of data set: biochemical. The procedure: K = [L][P] = 0.5 [L]T (FP50 − 0.5 [L]T) = FP − 0.5 [L] […]
Mouse brain sample preparation
Mouse tissues were isolated according to guidelines approved by the ethical committee of Leiden University. Male mouse brain (27 weeks old) was homogenized with glass beads (2x 1 min, bullet blender, speed 8) using cold lysis buffer (20 mM Hepes pH 7.2, 1 mM MgCl 2, 2 U/mL Benzonase). The membrane and cytosol were separated by centrifugation. The membrane fraction was resuspended in Hepes/DTT buffer. Protein concentration was determined with Bradford Assay, and samples were diluted to a final concentration of 2.0 mg/mL. Samples were snap -frozen in liquid nitrogen and stored at -80 °C until further use.
Lysate (19 µL, 2 µg/µL) was thawed on ice. For comparative ABPP (irreversible probes), 1 µL of probe (20x stock in DMSO) or pure DMSO was added to the sample, vortexed briefly, and in cubated for 30 minutes at RT. For competitive ABPP (reversible probes), 0.5 µL of the reversible probe (40x stock in DMSO) or pure DMSO (as vehicle) was added to the sample, vortexed briefly, and incubated for 30 […]
minutes at RT. Subsequently, 0.5 µL MB064 (40x stock in DMSO) was added to the proteome sample, vortexed briefly, and incubated for 10 minutes at RT, after which 0.5 µL FP-Bodipy-FL (40x stock in DMSO) was added, vortexed briefly and incubated for 10 minutes at RT. The final volume was 20 - 20.5 µL (5 - 7.5% DMSO). The reaction was quenched by the addition of 7.5 µL of 4*Laemmli-buffer (final concentrations: 60 mM Tris (pH 6.8), 2% (w/v) SDS, 10% (v/v) glycerol, 1.25% (v/v) β-mercaptoethanol, 0.01% (v/v) bromophenol blue). 10 µL (14 µg protein) of the quenched reaction mixture was resolved on 10% acrylamide SDS-PAGE (180 V, 75 min). Fluorescence was measured using a Biorad ChemiDoc MP system (fluorescence channels Cy2, Cy3, Cy5). Gels were then stained using coomassie staining and imaged for protein loading control. Labeling of the respective proteins via MB064 and FP-BODIPY was visualized in two separate channels. […]
Activity based protein profiling (ABPP)
PBMCs were thawed, washed with 1 x PBS and equal amounts of cells were exposed to DMSO (D2650; Sigma-Aldrich) or MAGL inhibitor PF (PF-06795071) in DMSO for 30 min at room temperature with concentrations ranging from 1 nM to 1000 nM. Cells were washed with 1 x PBS and lysed in ice -cold lysis buffer (ab156035; Abcam), lysates were centrifuged at 14,000 x g for 15 minutes at 4°C and supernatants were collected. For ABPP experiments, cell lysates containing equal amounts of protein were incubated with the appropriate concentration of activity -based probe for 30 min at room temperature. The reaction was quenched for 30 min by adding SDS -PAGE loading buffer (NP0007, Thermo). Samples were then separated by SDS-PAGE and bands were detected ChemiDoc Imager (Bio-Rad Laboratories). Following detection, gels were stained with SimplyBlue™ SafeStain (LC6060, Thermo) for 1 hour with gentle agitation and excess stain was removed by destaining in ddH2O for 1 h with gentle agitation. Gels were imaged and protein bands were quantified using Image Lab software (Bio-Rad Laboratories).

The target in another data set is kappa (h) (KOP) (Homo sapiens, UniProt P41145). The data set can be described thus: kappa (h) (KOP) (agonist radioligand). Particulars: read-out: Inhibition kappa (h) (KOP) (agonist radioligand).
kappa (h) (KOP), sequence (P41145 whole entry): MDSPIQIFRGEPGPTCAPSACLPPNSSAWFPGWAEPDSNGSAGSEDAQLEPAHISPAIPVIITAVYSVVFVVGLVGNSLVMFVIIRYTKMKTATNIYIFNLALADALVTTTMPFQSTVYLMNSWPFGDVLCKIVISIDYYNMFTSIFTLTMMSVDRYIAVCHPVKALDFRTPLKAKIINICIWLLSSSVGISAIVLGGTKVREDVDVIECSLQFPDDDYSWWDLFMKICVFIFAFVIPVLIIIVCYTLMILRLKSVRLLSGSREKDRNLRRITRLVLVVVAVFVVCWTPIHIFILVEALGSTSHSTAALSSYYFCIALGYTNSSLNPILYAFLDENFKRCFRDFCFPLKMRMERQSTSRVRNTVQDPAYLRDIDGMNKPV
Another data set concerns the target acetylcholinesterase (h) (Homo sapiens, UniProt P22303). The data set can be described thus: acetylcholinesterase (h). Particulars: read-out: Inhibition acetylcholinesterase (h).
The next data set addresses T1, rMAGL (Rattus norvegicus, UniProt Q8R431).
T1 sequence (Q8R431 1-303): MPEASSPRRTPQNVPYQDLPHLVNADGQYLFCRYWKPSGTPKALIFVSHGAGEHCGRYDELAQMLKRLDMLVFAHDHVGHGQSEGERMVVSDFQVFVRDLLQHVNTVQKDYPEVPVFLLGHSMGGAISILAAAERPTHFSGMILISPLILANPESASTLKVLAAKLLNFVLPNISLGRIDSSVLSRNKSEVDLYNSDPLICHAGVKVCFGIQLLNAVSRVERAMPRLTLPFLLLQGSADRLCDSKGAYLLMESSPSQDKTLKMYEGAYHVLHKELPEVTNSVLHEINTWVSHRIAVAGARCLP
The data set can be described thus: Native MS (RapidFire) 2-AG substrate assay, purified rat MAGL. Particulars: for IC50: purified rat MAGL, native MS substrate assay, read-out: IC50 rMAGL. Type of data set: biochemical. The procedure: In vitro MAGL Inhibition Assay
Compounds were profiled for MAGL inhibitory activity by determining the enzymatic activity by following the hydrolysis of the natural substrate 2-arachidonoylglycerol (2-AG), resulting in arachidonic acid, which can be followed by mass spectrometry. The 2-AG assay was carried out in 384 well assay plates (PP, Greiner Cat# 784201) in a total volume of 20 µL. Compound dilutions were made in 100% DMSO (VWR Chemicals 23500.297) in a polypropylene plate in 3-fold dilution steps to give a final concentration range in the assay from 12.5 µM to 0.8 pM. 0.25µL compound dilutions (100% DMSO) were added to 9 µL MAGL in assay buffer (50 mM TRIS (GIBCO, 15567-027), 1 mM EDTA (Fluka, 03690-100 mL), 0.01% (v/v) Tween. After shaking, the plate was incubated for 15 min at RT. To start the reaction, 10 µL 2-arachidonoylglycerol in assay buffer was added. The final concentrations in the assay were 50 pM MAGL and 8 µM 2-arachidonoylglyerol. After shaking and 30 min incubation at RT, the reaction was quenched by the addition of 40µL of ACN containing 4µM of d8-arachidonic acid. The amount of arachidonic acid was traced by an online SPE system (Agilent Rapidfire) coupled to a triple quadrupole mass spectrometer (Agilent 6460). A C18 SPE cartridge (G9205A) was used in an ACN/water liquid setup. The mass spectrometer was operated in negative electrospray mode following the mass transitions 303.1 → 259.1 for arachidonic acid and 311.1 → 267.0 for d8-arachidonic acid. The activity of the compounds was calculated based on the ratio of intensities [arachidonic acid / d8-arachidonic acid]. The lowest IC50 value that can be determined with high accuracy is approximately 0.025 nM.

≈ marks a conversion by molar mass, not a printed value.

acetylcholinesterase (h), sequence (P22303 32-614): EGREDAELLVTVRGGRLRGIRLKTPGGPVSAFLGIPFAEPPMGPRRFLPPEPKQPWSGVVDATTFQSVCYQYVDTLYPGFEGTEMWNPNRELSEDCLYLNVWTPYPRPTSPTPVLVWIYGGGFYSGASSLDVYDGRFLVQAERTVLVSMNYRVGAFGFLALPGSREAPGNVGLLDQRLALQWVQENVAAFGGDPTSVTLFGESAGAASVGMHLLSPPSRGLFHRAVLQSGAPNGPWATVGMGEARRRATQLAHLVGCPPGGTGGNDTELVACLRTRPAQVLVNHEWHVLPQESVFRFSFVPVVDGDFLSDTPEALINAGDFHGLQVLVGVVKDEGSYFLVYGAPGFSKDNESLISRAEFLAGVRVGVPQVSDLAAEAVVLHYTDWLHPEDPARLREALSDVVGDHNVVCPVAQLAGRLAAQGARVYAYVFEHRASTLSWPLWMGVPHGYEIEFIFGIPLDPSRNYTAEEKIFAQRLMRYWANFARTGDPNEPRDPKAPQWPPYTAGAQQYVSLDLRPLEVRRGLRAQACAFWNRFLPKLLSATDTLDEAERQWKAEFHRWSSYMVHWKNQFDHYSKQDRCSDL

On to `O=C(O[C@H](CO)C(F)(F)F)N1CC2(CC(CC3=C4C=CC=[N+]4[B-](F)(F)n4cccc43)C2)C1` [Compound 1], for which the “Inhibition N muscle-type (h) (antagonist radioligand)” value (“Inhibition N muscle-type (h)” for short) with N muscle-type (h) is listed as -11,30%. In addition, in data set [1], the solubility (kinetic) is 19 µg/mL (≈ 41.6 µM). In addition, the “labeling selectivity in ABPP (covalent probes)” value (shortened to “labeling selectivity in ABPP”) in data set [2] is listed as “only selective irreversible labeling of the two MAGL isoforms”. Besides, the inhibition at 10 µM on kappa (h) (KOP) is 7.8%; at acetylcholinesterase (h), -8.2%. In addition, the IC50 on rMAGL turned out to be 0.36 nM.
`O=C1CO[C@H]2CCN(C(=O)N3CC4(CC(CC5=C6C=CC(c7ccc[nH]7)=[N+]6[B-](F)(F)n6cccc65)C4)C3)C[C@H]2N1` [Compound 4a]: the “Inhibition N muscle-type (h)” value with N muscle-type (h) is given as -1,70%. Also, the solubility (kinetic) in data set [1] was under 0.3 µg/mL. Besides, the “selectivity in competitive ABPP (reversible probes)” value (from here on “selectivity in competitive ABPP”) in data set [2] is on record as “no other potential off-target detectable”. The inhibition at 10 µM was found to be 22.7% at kappa (h) (KOP) and 1.8% on acetylcholinesterase (h). In addition, on rMAGL, the concentration for half-maximal inhibition (IC50) came to 0.47 nM.
`O=C(OC(C(F)(F)F)C(F)(F)F)N1CC2(CC(CC3=C4C=CC=[N+]4[B-](F)(F)n4cccc43)C2)C1` [Compound 2]: in the data set with N muscle-type (h), the “Inhibition N muscle-type (h)” value is listed as -0,30%. Moreover, the kinetic solubility in data set [1] was under 3 µg/mL. Further, in data set [2], the “labeling selectivity in ABPP” value is recorded as “only selective irreversible labeling of the two MAGL isoforms”. Besides, the inhibition at 10 µM at kappa (h) (KOP) is 5.9%; on acetylcholinesterase (h), -2.9%. Moreover, the 50% inhibitory concentration (IC50) at rMAGL was determined as 0.2 nM.
On to `O=C(N1CC2(CC(CC3=C4C=CC=[N+]4[B-](F)(F)n4cccc43)C2)C1)N1CC2(CC(n3cnc(C4CC4)n3)C2)C1` [Compound 5], for which, in the data set with N muscle-type (h), the “Inhibition N muscle-type (h)” value was 17,00%. Further, the kinetic solubility in data set [1] came to 46 µg/mL (≈ 86.6 µM). In addition, the “selectivity in competitive ABPP” value in data set [2] was “no other potential off-target detectable”. Moreover, the inhibition at 10 µM at kappa (h) (KOP) was 10.3%; on acetylcholinesterase (h) it was -14.4%. At rMAGL, the IC50 is 0.98 nM.
As to `O=C(OC(C(F)(F)F)C(F)(F)F)N1CC2(CC(CC3=C4C=CC(c5ccc[nH]5)=[N+]4[B-](F)(F)n4cccc43)C2)C1` [Compound 2a], the “Inhibition N muscle-type (h)” value with N muscle-type (h) was -9,40%. In addition, in data set [1], the solubility (kinetic) is under 1 µg/mL. For the same compound, the “labeling selectivity in ABPP” value in data set [2] is on record as “only selective irreversible labeling of the two MAGL isoforms”. The inhibition at 10 µM on kappa (h) (KOP) is 4.9%; on acetylcholinesterase (h) it was 2.5%. Also, the IC50 on rMAGL was 0.68 nM.
In data set [1], `O=C1CO[C@H]2CCN(C(=O)N3CC4(CC(CC5=C6C=CC=[N+]6[B-](F)(F)n6cccc65)C4)C3)C[C@H]2N1` [Compound 4] registered a solubility (kinetic) of 112 µg/mL (≈ 232 µM). Further, the “selectivity in competitive ABPP” value in data set [2] is reported as “no other potential off-target detectable”. The IC50 on rMAGL came out at 2.4 nM. Besides, the “loss of potency against rat or cynomolgus monkey orthologs” value on rMAGL (rat or cynomolgus monkey MAGL) was “less than 4 fold”.

What is called kinetic solubility is the concentration staying in solution when a stock, usually in DMSO, is diluted into the medium. One may read the inhibition as the drop in the measured response relative to a control, in per cent. The term IC50 denotes the midpoint of a concentration-inhibition curve.
